# Reference: ChEMBL document CHEMBL2062425, “Synthesis and in vitro evaluation of α-synuclein ligands” (Bioorg Med Chem, 2012)
# Biological target: Alpha-synuclein (Homo sapiens, UniProt P37840)
# Experiment: biochemical
smiles,measurement,value
c1ccc2c(c1)Nc1ccccc1S2 [PHENOTHIAZINE],IC50,26 µM
same,Ki,> 0.5 µM
